Legend:
[1] = tested on: decay of Radiata pine sapwood panels (field exposure, Hawaii); test: Hawaiian field trial, flat panel test on treated radiata pine sapwood panels
Experimental: Radiata pine sapwood panels (200×70×25 mm) were treated with various preservatives and exposed on racks at 45°, using a method generally described as the “flat panel test” (Reference: Australasian Wood Preservation Committee, Protocols for Assessment of Wood Preservatives, March 2007 Revision, pp. 32). Untreated controls, solvent-treated controls and panels treated with reference preservatives (e.g., CCA) were also included in this field test. Note: All formulations contained the insecticide permethrin at a concentration sufficient to deliver approximately 0.02% m/m active in the treated panels. After approximately three years outdoor exposure in Hawaii, the specimens were rated using a typical 0 to 10 rating system (e.g., Evaluation Standard […], AWPA Book of Standards, 2010, American Wood Protection Association, Birmingham, Ala.), where 7 is the lowest score where the specimen is deemed still to be serviceable.

Coniophora olivacea = test: Laboratory fungal bioassay (Example 6), mass loss of treated, leached radiata pine sapwood; assay type: cell-based
Experimental: (§1) The bioassay was carried out in accordance with recognised methods (see, Protocols for the Assessment of Wood Preservatives, Australasian Wood Preservation Committee, March 2007 Revision, Ensis, Clayton).
(§2) Radiata pine sapwood (20×20×10 mm) specimens were treated with various preservative formulations. After drying the specimens were saturated with water and leached in a shaking water-bath at 35° C. for seven days, with daily changes of water. After leaching, the specimens were vacuum oven dried, before being sterilised in readiness for the fungal bioassay. The bioassay was carried out in accordance with standard laboratory techniques, by an independent research provider.
(§3) Mass loss was used to determine the effectiveness of a preservative treatment. […] Decay is deemed to have been prevented if the mass loss is less than 3%.
Some basidiomycete decay fungi are more tolerant to azoles that others. In this bioassay, a selection of brown rot fungi were chosen. One of those chosen, Coniophora olivacea, is relatively resistant to azoles.

Fomitopsis lilacinogilva = test: as above; assay type: cell-based
Experimental: as §1, §2, §3
Fomitopsis lilacinogilva is a wood-rotting bracket fungus common in many places of Gondwanaland origin. It is found on logs, stumps, and some outdoor wooden constructions. It forms fans, shelves, pads or crusts, to 100 mm across, is hairy, crusted above, zoned pinkish and brownish. The results against Fomitopsis lilacinogilva were less spectacular. Azole/zinc 1:2 gave 10% mass loss; 1:1 gave 15.9% mass loss; and azoles alone gave 19.9% mass loss versus the control (71.5% mass loss).

[2] = retention 0.1% m/m (as Zn metal)
[3] = retention 0.2% m/m (as Zn metal)
[4] = retention 0.3% m/m (as Zn metal)

Substance	Comment (decay state of panels) ([1]; retention 0.11% m/m Cu, approx. three years outdoor exposure in Hawaii, permethrin approx. 0.02% m/m)	Minimum effective retention to prevent decay, as copper ([1]; three year inspection, Hawaii, expressed as copper)	C. olivacea Mass Loss (%) (Coniophora olivacea; [2])	C. olivacea Mass Loss (%) (Coniophora olivacea; [3])	C. olivacea Mass Loss (%) (Coniophora olivacea; [4])	F. lilacinogilva Mass Loss (%) (Fomitopsis lilacinogilva; [2])	F. lilacinogilva Mass Loss (%) (Fomitopsis lilacinogilva; [3])	F. lilacinogilva Mass Loss (%) (Fomitopsis lilacinogilva; [4])
copper naphthenate	Heavily decayed	> 0.11 % m/m	–	–	–	–	–	–
zinc naphthenate [ZnN]	–	–	50.5%	42.8%	28.4%	65.8%	60.2%	53.5%

Reference: patent US20140370320A1, “WOOD PRESERVATIVE” (Arch Wood Protection Pty Ltd, priority 2011, published 2014)
